According to paper PMC7619385 (ACS infectious diseases, 2025):
Where two headings read alike, the source gives them in different places.

Assays:
[1] = molecular target: T1, LmxCLK1 (Leishmania mexicana, UniProt E9AMP2); assay: biochemical; type: binding
T1 sequence (E9AMP2 1-422): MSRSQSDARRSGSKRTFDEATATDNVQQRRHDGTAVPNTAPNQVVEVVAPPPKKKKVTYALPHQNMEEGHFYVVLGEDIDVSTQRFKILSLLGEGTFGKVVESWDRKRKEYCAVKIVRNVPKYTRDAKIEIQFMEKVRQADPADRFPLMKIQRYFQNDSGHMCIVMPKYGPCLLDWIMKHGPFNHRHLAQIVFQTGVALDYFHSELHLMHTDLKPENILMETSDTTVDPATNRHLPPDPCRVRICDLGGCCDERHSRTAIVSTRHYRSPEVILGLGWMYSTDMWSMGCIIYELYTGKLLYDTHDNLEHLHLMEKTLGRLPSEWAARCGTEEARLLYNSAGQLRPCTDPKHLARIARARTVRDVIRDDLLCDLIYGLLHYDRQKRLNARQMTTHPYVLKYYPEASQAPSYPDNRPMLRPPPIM

[2] = molecular target: NLuc::LmxCLK1 (Leishmania mexicana, UniProt E9AMP2); assay: cell-based; type: cell-based; conditions: for Target occupancy Run 1 / Target occupancy Run 2 / Target occupancy Average: 10 µM compound, tracer SV366, promastigotes; for Target occupancy Average: mean of two experiments
Summary of the method: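 NanoBRET tracer displacement in live cells expressing NLuc-tagged CLK1, test compounds at 10 µM fixed, 1% DMSO final. Acceptor/donor emission (610/460 nm) ratio gives mBRET, converted to blank-corrected probe occupancy (%); probe KD from single-site saturation binding fits.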

[3] = DSF, 10 µM compound, 2 µM LmxCLK1, Run 1, read-out: ΔTm Run 1
[4] = DSF, 10 µM compound, 2 µM LmxCLK1, Run 2, read-out: ΔTm Run 2
[5] = DSF, 10 µM compound, 2 µM LmxCLK1, mean of two runs, read-out: ΔTm Average
[6] = read-out: Target occupancy Average
[7] = read-out: Target occupancy Run 1
[8] = read-out: Target occupancy Run 2
[9] = DSF, 10 µM compound, 2 µM LmxCLK1, Run 1
[10] = DSF, 10 µM compound, 2 µM LmxCLK1, Run 2
[11] = DSF, 10 µM compound, 2 µM LmxCLK1, mean of two runs

Molecule | ΔTm at 10 µM [1, 3] [°C] | ΔTm at 10 µM [1, 4] [°C] | ΔTm at 10 µM [1, 5] [°C] | receptor occupancy at 10 µM [2, 6] [%] | receptor occupancy at 10 µM [2, 7] [%] | receptor occupancy at 10 µM [2, 8] [%] | ΔTm Run 1 [1, 9] [°C] | ΔTm Run 2 [1, 10] [°C] | ΔTm Average [1, 11] [°C] | Target occupancy Run 1 [2] [%] | Target occupancy Run 2 [2] [%] | Target occupancy Average [2] [%] | ΔTm Average [1] | ΔTm Run 1 [1] | ΔTm Run 2 [1]
C=CC(=O)Nc1ccc2ncnc(Nc3ccc(OCc4cccc(F)c4)c(Cl)c3)c2c1 [AST-1306] | -0.1 | -0.4 | -0.2 | -9.2 | -7.7 | -10.7 |  |  |  |  |  |  |  |  | 
O=C(NC1CCNCC1)c1[nH]ncc1NC(=O)c1c(Cl)cccc1Cl [AT7519] | 0.4 | 0.5 | 0.4 | -13.8 | 6.4 | -34 |  |  |  |  |  |  |  |  | 
CC(C)NC[C@@H](C(=O)N1CCN(c2ncnc3c2[C@H](C)C[C@H]3O)CC1)c1ccc(Cl)cc1 [GDC-0068] | 0.4 | 0 | 0.2 | 0.3 | 6 | -5.5 |  |  |  |  |  |  |  |  | 
COc1cc2ncnc(Nc3ccc(O)c(Br)c3)c2cc1OC [WHI-P154] |  |  |  |  |  |  | 0.1 | 0.1 | 0.1 | 7.3 | -12.9 | -2.8 |  |  | 
NC(=O)c1cccc(-c2cc(Nc3ccc(OC(F)(F)F)cc3)ncn2)c1 [GNF-2] |  |  |  |  |  |  |  |  |  | -8.5 | -14.2 | -11.3 | -0.2 | -0.2 | -0.3
O=C(c1ccc(Nc2nccc(-c3cc4ccccc4s3)n2)cc1)N1CCC(N2CCCC2)CC1 [IKK-16 (IKK Inhibitor VII)] |  |  |  |  |  |  | 1.9 | 1.6 | 1.8 | 10.2 | -10.2 | 0.0 |  |  | 
Cc1ccc(S(=O)(=O)/C=C/C#N)cc1 [BAY 11-7082] |  |  |  |  |  |  | -0.4 | -0.2 | -0.3 | -17.1 | -14.7 | -15.9 |  |  | 
NC(=O)Nc1sc(-c2ccc(F)cc2)cc1C(N)=O [TPCA-1] |  |  |  |  |  |  | 0.1 | 0.2 | 0.2 | 1.2 | -7.6 | -3.2 |  |  | 
CC(C)N(CCC(=O)c1ccc2ccccc2c1)Cc1ccccc1.Cl [ZM 39923 HCl] |  |  |  |  |  |  | 0.0 | -0.3 | -0.2 | 0.2 | -18.8 | -9.3 |  |  | 
UNC-AA-1-0013 (AAK1) |  |  |  |  |  |  |  |  |  | 3.7 | -11.6 | -4.0 | -0.2 | -0.2 | -0.3
O=C(Nc1nc2cccc(-c3ccc(CN4CCS(=O)(=O)CC4)cc3)n2n1)C1CC1 [Filgotinib (GLPG0634)] | 0.2 | -0.4 | -0.1 | -15.3 | -9.1 | -21.6 |  |  |  |  |  |  |  |  | 
COc1ccc2c(c1)c(C1=C(c3c[nH]c4ccccc34)C(=O)NC1=O)cn2CCCN(C)C [Go 6983] |  |  |  |  |  |  | 0.6 | 0.0 | 0.3 | -11.0 | -14.1 | -12.6 |  |  | 
Nc1ncnc2c1c(-c1cnc3[nH]ccc3c1)nn2C1CCCC1 [PP121] |  |  |  |  |  |  | 0.9 | 0.7 | 0.8 | -0.4 | -14.8 | -7.6 |  |  | 
C=CC(=O)Nc1cccc(Nc2nc(Nc3ccc(Oc4ccnc(C(=O)NC)c4)cc3)ncc2F)c1 [CNX-774] |  |  |  |  |  |  | -0.3 | 0.0 | -0.2 | -4.4 | -9.3 | -6.8 |  |  | 
O=C(NCCO)c1cccc(-c2cc(Nc3ccc(OC(F)(F)F)cc3)ncn2)c1 [GNF-5] |  |  |  |  |  |  |  |  |  | -7.9 | -2.3 | -5.1 | -0.3 | -0.2 | -0.3
CC[C@H](Nc1ncnc2[nH]cnc12)c1nc2cccc(F)c2c(=O)n1-c1ccccc1 [CAL-101 (Idelalisib)] |  |  |  |  |  |  | -0.2 | -0.2 | -0.2 | 0.2 | 0.1 | 0.1 |  |  | 
CC(C)(C)c1nc(-c2cccc(NS(=O)(=O)c3c(F)cccc3F)c2F)c(-c2ccnc(N)n2)s1 [Dabrafenib (GSK2118436)] |  |  |  |  |  |  | -0.2 | 0.0 | -0.1 | 0.7 | -7.9 | -3.6 |  |  | 
Cn1cnc(N)c2ncnc1-2 [3-Methyladenine] | 0.2 | 0 | 0.1 | -2.2 | 2.8 | -7.1 |  |  |  |  |  |  |  |  | 
Cc1[nH]c2ccccc2c1C1=C(NCCc2ccc(F)cc2)C(=O)N(C)C1=O [IM-12] |  |  |  |  |  |  |  |  |  | -0.3 | -14.5 | -7.4 | -0.2 | -0.2 | -0.3
COc1cc2ncnc(Nc3ccc(F)c(Cl)c3)c2cc1NC(=O)/C=C/CN1CCCCC1 [Dacomitinib (PF299804)] |  |  |  |  |  |  | -0.4 | -0.5 | -0.4 | 1.4 | -14.2 | -6.4 |  |  | 
O=C(NOCC1CC1)c1ccc(F)c(F)c1Nc1ccc(I)cc1Cl [PD184352 (CI-1040)] |  |  |  |  |  |  | 0.1 | 0.1 | 0.1 | -2.3 | -19.9 | -11.1 |  |  | 
CN(C)Cc1cccc(N/C(=C2\C(=O)Nc3cc(C(N)=O)ccc32)c2ccccc2)c1 [BIX 02188] | 0.1 | -0.2 | 0 | -6.5 | 4.1 | -17 |  |  |  |  |  |  |  |  | 
CN1CCCN(C(=O)c2cccc(-c3ccc(/C=C4/C(=O)Nc5ccc(Cl)cc54)o3)c2)CC1.Cl [CX-6258 HCl] |  |  |  |  |  |  | 0.1 | -0.4 | -0.1 | -0.5 | -26.8 | -13.6 |  |  | 
